Reference: patent US12187749B2, “Application of dipyrrinato-iridium complexes in anti-tumor and anti-bacterial therapy” (BIOLITEC UNTERGEHMENSBETEILIGUNGS II AG, priority 2020, dated 2025)

Key:
[1] = test system: Staphylococcus aureus DSM 1104; assay: Antibacterial testing (CFU/ml count) against S. aureus; assay type: cell-based; settings: photosensitizer 100, 10 and 1 μM; for antibacterial activity against S. aureus in the absence of light: absence of light (dark toxicity control), 30 min incubation
Protocol: The organisms studied were Staphylococcus aureus DSM 1104, Gram-positive and Pseudomonas aeruginosa DSM 1117, Gram-negative. Cultures cells are suspended in sterile phosphate-buffered saline (PBS) or sterile PBS supplemented with 10% sterile horse blood serum. The bacterial suspensions are placed into sterile black well plates with clear bottoms. Concentrations of photosensitizer used in the study were as follows: 100 μM, 10 μM and 1 μM. After an incubation time period of 30 minutes, the samples are exposed to white light, with a power density and irradiation time resulting in an energy fluency of about 100 J/cm^2. Control plates contained no photosensitizer and are not exposed to laser light. The control samples for dark toxicity are only exposed to photosensitizer without any illumination. After irradiation, the samples are removed and suspended again in the culture media. The numbers of colony-forming units (CFU/ml) are enumerated after an adequate incubation time period.

[2] = test system: HT 29 and other cell lines; assay: Cell tests (XTT cell viability), dark toxicity, in HT 29 and other cell lines; assay type: cell-based; settings: 2 or 10 μM photosensitizer, 24 h incubation, XTT assay
Protocol: The photosensitizing activity was determined in the following cell lines: • HT29 (human colon adenocarcinoma cell line) • L929 (mouse fibroblast cell line) • A431 (human epidermoid carcinoma cell line) • A253 (submaxillary salivary gland, epidermoid cell line) • CAL-27 (human tongue squamous cell carcinoma cell line) • J774A.1 (Mouse BALB/c monocyte macrophage).
The cell lines were grown in DMEM (c.c.pro GmbH) supplemented with 10% heat-inactivated fetal calf serum (FCS, c.c.pro GmbH), 1% penicillin (10000 IU) and streptomycin (10000 μg/ml, c.c.pro GmbH). Cells were kept as a monolayer culture in a humidified incubator (5% CO2 in air at 37° C.). A photosensitizer stock solution (2 mM) was performed in DMSO and was kept in the dark at 4° C. Further dilution was performed in DMEM medium without phenol red supplemented with 10% FCS to reach a final photosensitizer concentration of 2 or 10 μM, respectively. After seeding the cells in micro plates, the cells were incubated with fresh medium (DMEM without phenol red) containing 10% FCS with 2 or 10 μM of the photosensitizer for 24 h before light exposure. Before photosensitization, cells were washed, cell culture medium was exchanged with DMEM without phenol red and 10% FCS, then irradiated at room temperature with white light source at a fixed fluence rate of about 100 mW/cm^2 (50 J/cm^2). Following irradiation, cells were incubated in a humidified incubator (5% CO2 in air at 37° C.) for 24 h until cell viability assay. The cell viability was assessed by the XTT assay. 500 mg XTT (sodium 3′-[phenyl-aminocarbonyl)-3,4-tetrazolium]-bis(4-methoxy-6-nitro)benzene sulfonic acid, Applichem GmbH) is dissolved in 500 ml PBS-Buffer (without Ca^2+ and Mg^2) and sterile filtered. Solution was stored in the dark at −20° C. until use. A sterile solution containing PMS (N-methyl dibenzopyrazine methyl sulfate, Applichem GmbH) was needed as an activation reagent for the XTT. 0.383 mg PMS was dissolved in 1 ml PBS-Buffer. […] The absorbance of the samples was measured with a microplate reader (Infinite 200, Tecan Group Ltd.) at a wavelength of 490 nm.

Substance	antibacterial activity in the presence of complex media (serum addition) ([1]; PBS supplemented with 10% sterile horse blood serum)	antibacterial activity against S. aureus in the absence of light [1]	toxicity to cells in the absence of light (dark toxicity) [2]
Bis(2-phenylpyridyl){5-[2,3,5,6-tetrafluoro-4-(1′-thio-β-D-galactosyl)phenyl]-dipyrrinato}iridium(III) [Example 3.4]	antibacterial activity is also observed	high antibacterial activity	–
Bis(2-phenylpyridyl){5-[2,3,5,6-tetrafluoro-4-(1′-thio-β-D-glucosyl)phenyl]-dipyrrinato}iridium(III) [Example 3.3]	–	high antibacterial activity	–
Chlorido{5-[4-(N,N-dibutylamino)-3-nitrophenyl]dipyrrinato}(pentamethyl-cyclopentadienyl)iridium(III) [Example 1.6]	–	–	non-toxic
[5-(4-Butyloxy-2,3,5,6-tetrafluorophenyl)dipyrrinato]chlorido-(pentamethylcyclopentadienyl)iridium(III) [Example 1.3]	–	–	non-toxic
{5-[4-(N-2-Hydroxyethylamino)-2,3,5,6-tetrafluorophenyl]dipyrrinato}bis(2-phenyl-pyridyl)iridium(III) [Example 2.1]	–	high antibacterial activity	–
{5-[4-(N-Butylamino)-2,3,5,6-tetrafluorophenyl]dipyrrinato}chlorido-(pentamethylcyclopentadienyl)iridium(III) [Example 1.2]	–	–	non-toxic
